Experimental data: ChEMBL document CHEMBL4483862, “Open-source discovery of chemical leads for next-generation chemoprotective antimalarials” (2018)

Tested on: Plasmodium berghei
Test: Luciferase/luciferin-expressing antifolate-resistant parasites were used to infect a culture of HepG2 cells that were pre-incubated with compounds. Infected hepatocytes emit light due to the luciferase reaction. Assay results are presented as the percent inhibition of light emission compared to control. […]
Assay type: functional
Conditions: sporozoite; for IC90: read-out: LUCIFERASE INFECTION ASSAY - IC90
[1] = read-out: LUCIFERASE INFECTION ASSAY - IC50

| Compound | IC90 [µM] | IC50 [1] [µM] | also measured |
| --- | --- | --- | --- |
| O=C(Cn1cc(C(=O)c2ccccc2)c2ccccc21)Nc1ccc(F)cc1 | > 8.86 | – | IC50 (PBLUC_HILL_SLOPE 1.46, PBLUC_R_SQUARED 0.555, read-out: LUCIFERASE INFECTION ASSAY - IC50): 3.31 µM |
| COc1ccc(-n2c(C)cc(C(=O)CSc3nc4c(n3-c3ccccc3)CCCC4)c2C)cc1 | > 10 | > 10 | – |
| CC1=NN(c2ccc(C)c(Cl)c2)C(=O)/C1=C\c1ccc2c(c1)OCO2 | > 9.3 | > 9.3 | – |
| CCC/C(=N\n1c(-c2ccc(-c3ccccc3)cc2)cs/c1=N/c1c(C)n(C)n(-c2ccccc2)c1=O)c1ccccc1 | > 10 | > 10 | – |
| O=C1C=C/C(=N/N(Cc2ccccc2)c2ccccc2)O1 | > 10 | > 10 | – |
| CN(CC(=O)Nc1ccc(OC(F)(F)F)cc1)Cc1cc([N+](=O)[O-])ccc1O | 3.33 | – | IC50 (HEPG2TOX_HILL_SLOPE 2.38, HEPG2TOX_R_SQUARED 0.828, PBLUC_HILL_SLOPE 9.41, PBLUC_R_SQUARED 0.824, read-out: LUCIFERASE INFECTION ASSAY - IC50): 2.64 µM |
| Cc1ccc(-c2nc(C(=O)NCCCN(C)C)cc3c2[nH]c2ccccc23)cc1 | > 8.54 | > 8.54 | – |
| CCC(C)NCCCCOc1cc(C(C)C)ccc1C (stereo unspecified) | > 10 | – | IC50 (PBLUC_HILL_SLOPE 11.7, PBLUC_R_SQUARED 0.0741, read-out: LUCIFERASE INFECTION ASSAY - IC50): > 10 µM |
| COc1ccc(CCNc2ncnc3sc(C)cc23)cc1OC | 2.92 | 0.791 | – |
| CCN(CC)c1ccc(Nc2nc(-c3c(C)nc4ncccn34)cs2)cc1 | 6.56 | – | IC50 (HEPG2TOX_HILL_SLOPE 1.79, HEPG2TOX_R_SQUARED 0.957, PBLUC_HILL_SLOPE 3.27, PBLUC_R_SQUARED 0.301, read-out: LUCIFERASE INFECTION ASSAY - IC50): 3.35 µM |
| CNC(=O)c1sc2scc(C)c2c1C | > 14.6 | > 14.6 | – |
| CN(C)c1cccc(CNc2nccc3nc(-c4ccncc4)[nH]c23)c1 | > 10 | > 10 | – |
| CC(c1cccc(NC(=O)c2ccccc2)c1)N(C)c1ccc([N+](=O)[O-])cn1 (stereo unspecified) | 1.3 | – | IC50 (HEPG2TOX_HILL_SLOPE 3.15, HEPG2TOX_R_SQUARED 0.897, PBLUC_HILL_SLOPE 11.5, PBLUC_R_SQUARED 0.814, read-out: LUCIFERASE INFECTION ASSAY - IC50): 1.08 µM |
| COc1ccc(C)cc1N(CC(=O)Nc1ccccc1C(=O)NCCc1ccccc1)S(=O)(=O)c1ccccc1 | > 10 | > 10 | – |
| CCCc1cc(=O)n2nc(C)c(-c3ccc(Cl)cc3)c2[nH]1 | 4.98 | – | IC50 (PBLUC_HILL_SLOPE 10.5, PBLUC_R_SQUARED 0.468, read-out: LUCIFERASE INFECTION ASSAY - IC50): 4.03 µM |
| CCN(CC)C(CNc1ccc([N+](=O)[O-])cn1)Cc1ccccc1 (stereo unspecified) | > 10 | 7 | – |
| CSC(=NNc1ccc([N+](=O)[O-])cc1)NC(=O)c1c(Cl)cccc1Cl | > 8.27 | – | IC50 (PBLUC_HILL_SLOPE 1.5, PBLUC_R_SQUARED 0.194, read-out: LUCIFERASE INFECTION ASSAY - IC50): 7.91 µM |
| O=C(Nc1nc2ccccc2[nH]1)c1cc(-c2ccccn2)nc2ccccc12 | 9.7 | – | IC50 (PBLUC_HILL_SLOPE 9.86, PBLUC_R_SQUARED 0.717, read-out: LUCIFERASE INFECTION ASSAY - IC50): 7.76 µM |
| O=[N+]([O-])c1ccsc1Sc1ccc(C(F)(F)F)cn1 | > 10.8 | – | IC50 (FFLUC_HILL_SLOPE 11.2, FFLUC_R_SQUARED 0.0124, HEPG2TOX_HILL_SLOPE 0.715, HEPG2TOX_R_SQUARED 0.731, read-out: LUCIFERASE INFECTION ASSAY - IC50): > 10.8 µM |
| Cc1ccc(/C=N/n2c(-c3cc(C)c(C)cc3C)cs/c2=N\CC2CCCO2)o1 (stereo unspecified) | 3.52 | – | IC50 (FFLUC_HILL_SLOPE 16.3, FFLUC_R_SQUARED 0.0442, HEPG2TOX_HILL_SLOPE 1.44, HEPG2TOX_R_SQUARED 0.874, PBLUC_HILL_SLOPE 40.1, PBLUC_R_SQUARED 0.415, read-out: LUCIFERASE INFECTION ASSAY - IC50): 3.33 µM |
| CCOc1ccc(C(C)=O)cc1COC(=O)c1cc(-c2ccccc2)nc2c1c(C)nn2-c1ccccc1 | > 10 | > 10 | – |
| COC(=O)c1ccc(CSc2nnc(NC(=O)c3ccccc3[N+](=O)[O-])s2)cc1 | 0.0537 | – | IC50 (FFLUC_HILL_SLOPE 3.72, FFLUC_R_SQUARED 0.492, PBLUC_HILL_SLOPE 2.08, PBLUC_R_SQUARED 0.667, read-out: LUCIFERASE INFECTION ASSAY - IC50): 0.0187 µM |

| Compound | IC90 [µM] | IC50 [1] [µM] | also measured |
| --- | --- | --- | --- |
| CC(C)(C)c1nc2ccc(NC(=O)c3ccc(Cl)c(S(=O)(=O)NC4CC4)c3)cc2[nH]1 | > 10 | – | IC50 (HEPG2TOX_HILL_SLOPE 8.98, HEPG2TOX_R_SQUARED 0.824, PBLUC_HILL_SLOPE 3.11, PBLUC_R_SQUARED 0.121, read-out: LUCIFERASE INFECTION ASSAY - IC50): 7.36 µM |
| CNc1snc(C)c1C(=O)N(C)Cc1ccc(C(C)C)cc1 | 0.0634 | – | IC50 (HEPG2TOX_HILL_SLOPE 3.83, HEPG2TOX_R_SQUARED 0.742, PBLUC_HILL_SLOPE 1.58, PBLUC_R_SQUARED 0.865, read-out: LUCIFERASE INFECTION ASSAY - IC50): 0.0158 µM |
| NC(Cc1ccccc1)c1csc(NC(=O)NC(c2ccccc2)c2ccccc2)n1 (stereo unspecified) | > 7.7 | > 7.7 | – |
| O=C(N/N=C/c1c(-c2ccccc2)nc2sc3c(n12)CCCC3)c1ccc(Br)cc1 | 8.36 | – | IC50 (FFLUC_HILL_SLOPE 0.19, FFLUC_R_SQUARED 0.758, PBLUC_HILL_SLOPE 1.28, PBLUC_R_SQUARED 0.573, read-out: LUCIFERASE INFECTION ASSAY - IC50): 1.51 µM |
| CNC(=O)c1ccc(CN(C2CC2)S(=O)(=O)c2ccc(C)c(C)c2)cc1 | > 10 | – | IC50 (PBLUC_HILL_SLOPE 3.66, PBLUC_R_SQUARED 0.689, read-out: LUCIFERASE INFECTION ASSAY - IC50): 5.91 µM |
| CC(Sc1nnc2ccc(C(F)(F)F)cn12)C(=O)NCC1CCCO1 (stereo unspecified) | > 10 | > 10 | – |
| Cc1nn(Cc2ccccc2)c(Cl)c1C(=O)Nc1nnc(-c2ccccc2)o1 | 4.08 | – | IC50 (HEPG2TOX_HILL_SLOPE 1.65, HEPG2TOX_R_SQUARED 0.7, PBLUC_HILL_SLOPE 2.41, 3.47, PBLUC_R_SQUARED 0.702, 0.681, read-out: LUCIFERASE INFECTION ASSAY - IC50): 1.84 µM |
| COc1cc2c(cc1NC(=O)c1cnn(C(C)(C)C)c1C)oc1ccccc12 | 3.66 | – | IC50 (PBLUC_HILL_SLOPE 16.6, PBLUC_R_SQUARED 0.596, read-out: LUCIFERASE INFECTION ASSAY - IC50): 3.21 µM |
| Cn1nc(-c2ccc(/C=C(\C#N)S(C)(=O)=O)s2)cc1C(F)(F)F | > 9.13 | > 9.13 | – |
| CC(NC(=O)c1cccc(Nc2ncccn2)c1)c1cccc(C(F)(F)F)c1 (stereo unspecified) | 6.34 | 0.729 | – |
| CC(C)N(C(=O)CSc1nnc(-c2cccc(S(=O)(=O)N3CCOCC3)c2)n1-c1ccc(F)cc1)c1ccccc1 | > 10 | > 10 | – |
| Cc1ccc(/N=C2\SCC(C)N2C(=O)c2ccccc2SCC(=O)NCC2CCCCC2)c(C)c1 (stereo unspecified) | > 10 | – | IC50 (FFLUC_HILL_SLOPE 15, FFLUC_R_SQUARED 0.0481, HEPG2TOX_HILL_SLOPE 2.13, HEPG2TOX_R_SQUARED 0.879, PBLUC_HILL_SLOPE 4.29, PBLUC_R_SQUARED 0.235, read-out: LUCIFERASE INFECTION ASSAY - IC50): 8.13 µM |
| O=C1N(Cc2ccccc2)C(=O)C2(CCN(CC3CC=CCC3)CC2)N1CCc1ccccc1 (stereo unspecified) | > 7.21 | – | IC50 (HEPG2TOX_HILL_SLOPE 1.57, HEPG2TOX_R_SQUARED 0.788, PBLUC_HILL_SLOPE 4.98, PBLUC_R_SQUARED 0.479, read-out: LUCIFERASE INFECTION ASSAY - IC50): 4.9 µM |
| Clc1ccc(SCc2cc(NCc3ccccc3)nc(-c3cccnc3)n2)cc1 | 7.84 | 6.53 | – |
| FC(F)(F)Oc1cccc(-c2nnc3ccc(-c4cccc5ncccc45)cn23)c1 | 2.55 | – | IC50 (HEPG2TOX_HILL_SLOPE 0.706, HEPG2TOX_R_SQUARED 0.938, PBLUC_HILL_SLOPE 2.17, PBLUC_R_SQUARED 0.421, read-out: LUCIFERASE INFECTION ASSAY - IC50): 0.928 µM |
| O=C(/C=C/c1ccc([N+](=O)[O-])cc1)NCC(=O)N1CCN(S(=O)(=O)c2ccc(Cl)cc2)CC1 | 0.04 | – | IC50 (HEPG2TOX_HILL_SLOPE 0.532, HEPG2TOX_R_SQUARED 0.824, PBLUC_HILL_SLOPE 10.3, PBLUC_R_SQUARED 0.421, read-out: LUCIFERASE INFECTION ASSAY - IC50): 0.0324 µM |
| Cc1nc(-c2ccccn2)nc(NCc2ccccc2)c1Cl | 9.83 | – | IC50 (PBLUC_HILL_SLOPE 11, PBLUC_R_SQUARED 0.469, read-out: LUCIFERASE INFECTION ASSAY - IC50): 8.06 µM |
| CSc1nccc(-c2ccc(Cl)cc2)n1 | > 13.9 | – | IC50 (FFLUC_HILL_SLOPE 5.64, FFLUC_R_SQUARED 0.137, read-out: LUCIFERASE INFECTION ASSAY - IC50): > 13.9 µM |
| O=C(Nc1nc(CN2CCCCC2)cs1)c1ccc2[nH]c3c(c2c1)CCCC3 | > 10 | > 10 | – |
| COc1ccc(-c2cc(C(=O)N[C@@H](CCSC)c3nc4ccccc4[nH]3)c3ccccc3n2)cc1OC | 8.04 | – | IC50 (PBLUC_HILL_SLOPE 3.46, PBLUC_R_SQUARED 0.459, read-out: LUCIFERASE INFECTION ASSAY - IC50): 4.26 µM |
| Cc1ccc2c(c1)C1CN(C)CCC1N2C(=O)c1sc2ccccc2c1Cl (stereo unspecified) | 6.62 | – | IC50 (PBLUC_HILL_SLOPE 14.0, 2.64, PBLUC_R_SQUARED 0.410, 0.165, read-out: LUCIFERASE INFECTION ASSAY - IC50): 3.64 µM |
